In US10080739B2, “Aryl imidazoles and their use as anti-cancer agents” (Aptose Biosciences Inc., priority 2003, dated 2018):

Legend:
[1] = test system: human non-small cell lung cancer cells (H460); test: XTT cell proliferation assay, H460 cells, 48 h; type: cell-based; settings: NCI-H460, 48 h, read-out: % Survival
Experimental: Selected compounds of Formula I were tested for anti-cancer activity in vitro using a human colon carcinoma cells (HT-29) and human non-small cell lung cancer cells (H460). The cells were maintained in α-MEM medium (Wisent, St-Bruno, Qc) supplemented with 10% FBS, and grown at 37° C. in an atmosphere of 5% CO2. Cells were transferred onto 150 mm tissue culture plates and grown until sub-confluency (70-80%) prior to their use.
The anti-cancer activity in vitro was evaluated by a cell proliferation assay based on the ability of live cells to reduce the tetrazolium salt XTT to orange coloured compounds of formazan (XTT cell proliferation kit II, Roche Applied Science, Montreal, QC).
Approximately 4×10^3 colon cancer cells (HT-29) or 2×10^3 non-small cell lung cancer cells (NCI-H460) in 100 μl of complete culture medium were plated onto 96-well microtiter plates and incubated overnight at 37° C. The medium was then removed by inverting the plate and patting on a sterile absorbent cloth. Fifty μl of medium containing the test compound at either 25 or 100 μM, were added to the wells containing cells and incubated at 37° C. in an atmosphere of 5% CO2 for 48 h. Following incubation, 25 μl of an XTT reaction mixture (XTT at a final concentration of 0.3 mg/ml) were added to each well and the plates were incubated for a further 4 h. The absorbance of each sample was then determined at a wavelength of 490 nm/650 nm as reference. Each compound was tested in duplicate and the results are reported as averages.

Abl = biological target: T1, Abl (Homo sapiens, UniProt P00519); test: kinase profiler, Abl; type: biochemical; settings: 10 μM compound, 100 μM ATP, mean of % control
T1 construct: purchased Upstate Biotechnologies (kinase profiler service)
Experimental: (§1) Compound 45 was tested for its ability to function as a kinase inhibitor using the kinase profiler service from Upstate Biotechnologies. The general protocol employed is as follows: recombinant kinases were incubated with specific substrates, 10 mM MgAcetate, and [γ-^33P-ATP]. The reaction was initiated by the addition of MgATP mix. After incubation at room temperature for 40 minutes, the reaction was stopped by the addition of 5 μl of a 3% phosphoric acid solution. 10 μl of the reaction was then spotted on to a P30 filtermat and washed 3 times for 5 min. in 75 mM phosphoric acid and once in methanol prior to drying and scintillation counting. Each reaction was performed in duplicate with 100 μM ATP −/+10 μM compound 45. Results are presented in Table IV and are expressed as the mean of % control (no compound). PI 3-kinase-γ (PI3K-γ) activity was determined with the PIProfiler™ assay, which measures the binding of the GRP1 pleckstrin homology (PH) domain to PIP3, the product of PI3K acting on its physiological substrate PIP2.

ALK = biological target: T2, ALK (Homo sapiens, UniProt Q9UM73); test: kinase profiler, ALK; type: biochemical; settings: 10 μM compound, 100 μM ATP, mean of % control
T2 construct: purchased Upstate Biotechnologies (kinase profiler service)
Experimental: as §1

AMPK = test: kinase profiler, AMPK; type: biochemical, human; settings: 10 μM compound, 100 μM ATP, mean of % control
Experimental: as §1

ASK1 = biological target: T3, ASK1 (Homo sapiens, UniProt Q99683); test: kinase profiler, ASK1; type: biochemical; settings: 10 μM compound, 100 μM ATP, mean of % control
T3 construct: purchased Upstate Biotechnologies (kinase profiler service)
Experimental: as §1

CDK1/cyclinB = biological target: T4, CDK1/cyclinB (Homo sapiens, UniProt P06493); test: kinase profiler, CDK1/cyclinB; type: biochemical; settings: 10 μM compound, 100 μM ATP, mean of % control
T4 construct: purchased Upstate Biotechnologies (kinase profiler service)
Experimental: as §1

CDK2/cyclinA = biological target: T5, CDK2/cyclinA (Homo sapiens, UniProt P24941); test: kinase profiler, CDK2/cyclinA; type: biochemical; settings: 10 μM compound, 100 μM ATP, mean of % control
T5 construct: purchased Upstate Biotechnologies (kinase profiler service)
Experimental: as §1

EGFR = biological target: T6, EGFR (Homo sapiens, UniProt P00533); test: kinase profiler, EGFR; type: biochemical; settings: 10 μM compound, 100 μM ATP, mean of % control
T6 construct: purchased Upstate Biotechnologies (kinase profiler service)
Experimental: as §1

ErbB4 = biological target: T7, ErbB4 (Homo sapiens, UniProt Q15303); test: kinase profiler, ErbB4; type: biochemical; settings: 10 μM compound, 100 μM ATP, mean of % control
T7 construct: purchased Upstate Biotechnologies (kinase profiler service)
Experimental: as §1

FGFR3 = biological target: T8, FGFR3 (Homo sapiens, UniProt P22607); test: kinase profiler, FGFR3; type: biochemical; settings: 10 μM compound, 100 μM ATP, mean of % control
T8 construct: purchased Upstate Biotechnologies (kinase profiler service)
Experimental: as §1

Fms = biological target: T9, Fms (Homo sapiens, UniProt P07333); test: kinase profiler, Fms; type: biochemical; settings: 10 μM compound, 100 μM ATP, mean of % control
T9 construct: purchased Upstate Biotechnologies (kinase profiler service)
Experimental: as §1

IKKα = biological target: T10, IKKα (Homo sapiens, UniProt O15111); test: kinase profiler, IKKα; type: biochemical; settings: 10 μM compound, 100 μM ATP, mean of % control
T10 construct: purchased Upstate Biotechnologies (kinase profiler service)
Experimental: as §1

JNK1α1 = biological target: T11, JNK1α1 (Homo sapiens, UniProt P45983); test: kinase profiler, JNK1α1; type: biochemical; settings: 10 μM compound, 100 μM ATP, mean of % control
T11 construct: purchased Upstate Biotechnologies (kinase profiler service)
Experimental: as §1

MST2 = biological target: T12, MST2 (Homo sapiens, UniProt Q13188); test: kinase profiler, MST2; type: biochemical; settings: 10 μM compound, 100 μM ATP, mean of % control
T12 construct: purchased Upstate Biotechnologies (kinase profiler service)
Experimental: as §1

NEK2 = biological target: T13, NEK2 (Homo sapiens, UniProt P51955); test: kinase profiler, NEK2; type: biochemical; settings: 10 μM compound, 100 μM ATP, mean of % control
T13 construct: purchased Upstate Biotechnologies (kinase profiler service)
Experimental: as §1

PI3K-α = biological target: T14, PI3K-α (Homo sapiens, UniProt P42336); test: kinase profiler, PI3K-α; type: biochemical; settings: 10 μM compound, mean of % control
T14 construct: purchased Upstate Biotechnologies (kinase profiler service)

Pim-1 = biological target: T15, Pim-1 (Homo sapiens, UniProt P11309); test: kinase profiler, Pim-1; type: biochemical; settings: 10 μM compound, 100 μM ATP, mean of % control
T15 construct: purchased Upstate Biotechnologies (kinase profiler service)
Experimental: as §1

PKD2 = biological target: T16, PKD2 (Homo sapiens, UniProt Q9BZL6); test: kinase profiler, PKD2; type: biochemical; settings: 10 μM compound, 100 μM ATP, mean of % control
T16 construct: purchased Upstate Biotechnologies (kinase profiler service)
Experimental: as §1

Plk3 = biological target: T17, Plk3 (Homo sapiens, UniProt Q9H4B4); test: kinase profiler, Plk3; type: biochemical; settings: 10 μM compound, 100 μM ATP, mean of % control
T17 construct: purchased Upstate Biotechnologies (kinase profiler service)
Experimental: as §1

RAF = biological target: T18, RAF (Homo sapiens, UniProt P04049); test: kinase profiler, RAF; type: biochemical; settings: 10 μM compound, 100 μM ATP, mean of % control
T18 construct: purchased Upstate Biotechnologies (kinase profiler service)
Experimental: as §1

Rse = biological target: T19, Rse (Homo sapiens, UniProt Q06418); test: kinase profiler, Rse; type: biochemical; settings: 10 μM compound, 100 μM ATP, mean of % control
T19 construct: purchased Upstate Biotechnologies (kinase profiler service)
Experimental: as §1

Rsk1 = biological target: T20, Rsk1 (Homo sapiens, UniProt Q15418); test: kinase profiler, Rsk1; type: biochemical; settings: 10 μM compound, 100 μM ATP, mean of % control
T20 construct: purchased Upstate Biotechnologies (kinase profiler service)
Experimental: as §1

SAPK2a = biological target: T21, SAPK2a (Homo sapiens, UniProt Q16539); test: kinase profiler, SAPK2a; type: biochemical; settings: 10 μM compound, 100 μM ATP, mean of % control
T21 construct: purchased Upstate Biotechnologies (kinase profiler service)
Experimental: as §1

SAPK2b = biological target: T22, SAPK2b (Homo sapiens, UniProt Q15759); test: kinase profiler, SAPK2b; type: biochemical; settings: 10 μM compound, 100 μM ATP, mean of % control
T22 construct: purchased Upstate Biotechnologies (kinase profiler service)
Experimental: as §1

SAPK3 = biological target: T23, SAPK3 (Homo sapiens, UniProt P53778); test: kinase profiler, SAPK3; type: biochemical; settings: 10 μM compound, 100 μM ATP, mean of % control
T23 construct: purchased Upstate Biotechnologies (kinase profiler service)
Experimental: as §1

SGK = biological target: T24, SGK (Homo sapiens, UniProt O00141); test: kinase profiler, SGK; type: biochemical; settings: 10 μM compound, 100 μM ATP, mean of % control
T24 construct: purchased Upstate Biotechnologies (kinase profiler service)
Experimental: as §1

TAK1 = biological target: T25, TAK1 (Homo sapiens, UniProt O43318); test: kinase profiler, TAK1; type: biochemical; settings: 10 μM compound, 100 μM ATP, mean of % control
T25 construct: purchased Upstate Biotechnologies (kinase profiler service)
Experimental: as §1

Tie2 = biological target: T26, Tie2 (Homo sapiens, UniProt Q02763); test: kinase profiler, Tie2; type: biochemical; settings: 10 μM compound, 100 μM ATP, mean of % control
T26 construct: purchased Upstate Biotechnologies (kinase profiler service)
Experimental: as §1

T25 sequence (O43318 1-303 limits assumed): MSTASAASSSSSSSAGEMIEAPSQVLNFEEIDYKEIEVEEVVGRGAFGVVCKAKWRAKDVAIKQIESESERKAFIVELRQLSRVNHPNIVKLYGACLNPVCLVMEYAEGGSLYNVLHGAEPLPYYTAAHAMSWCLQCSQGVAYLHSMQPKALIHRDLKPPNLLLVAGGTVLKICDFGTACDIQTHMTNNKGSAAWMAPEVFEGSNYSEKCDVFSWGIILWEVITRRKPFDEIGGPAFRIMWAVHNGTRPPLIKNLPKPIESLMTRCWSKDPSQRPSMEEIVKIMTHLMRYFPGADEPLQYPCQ
T16 sequence (Q9BZL6 whole entry): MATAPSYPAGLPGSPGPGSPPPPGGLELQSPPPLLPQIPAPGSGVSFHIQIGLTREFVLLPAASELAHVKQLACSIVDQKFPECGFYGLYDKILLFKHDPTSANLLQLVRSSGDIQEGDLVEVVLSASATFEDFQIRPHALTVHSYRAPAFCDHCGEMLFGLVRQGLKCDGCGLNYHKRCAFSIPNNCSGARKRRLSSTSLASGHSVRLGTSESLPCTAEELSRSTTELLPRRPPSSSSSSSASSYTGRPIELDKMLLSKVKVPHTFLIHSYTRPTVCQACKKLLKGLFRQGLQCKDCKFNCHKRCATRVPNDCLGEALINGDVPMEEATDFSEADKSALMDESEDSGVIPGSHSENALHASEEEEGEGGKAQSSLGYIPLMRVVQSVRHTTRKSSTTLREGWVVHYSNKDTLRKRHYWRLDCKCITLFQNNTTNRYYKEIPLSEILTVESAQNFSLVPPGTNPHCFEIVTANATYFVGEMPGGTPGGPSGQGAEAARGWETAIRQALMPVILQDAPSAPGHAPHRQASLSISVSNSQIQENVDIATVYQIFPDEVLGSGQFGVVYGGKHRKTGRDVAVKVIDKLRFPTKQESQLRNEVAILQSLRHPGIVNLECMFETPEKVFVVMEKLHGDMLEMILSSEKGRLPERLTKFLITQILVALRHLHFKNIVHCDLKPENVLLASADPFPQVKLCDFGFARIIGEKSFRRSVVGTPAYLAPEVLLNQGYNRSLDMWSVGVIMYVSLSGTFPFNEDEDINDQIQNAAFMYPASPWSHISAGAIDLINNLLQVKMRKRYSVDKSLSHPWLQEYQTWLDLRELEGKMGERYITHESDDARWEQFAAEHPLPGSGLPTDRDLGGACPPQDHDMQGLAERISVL
T15 sequence (P11309 whole entry): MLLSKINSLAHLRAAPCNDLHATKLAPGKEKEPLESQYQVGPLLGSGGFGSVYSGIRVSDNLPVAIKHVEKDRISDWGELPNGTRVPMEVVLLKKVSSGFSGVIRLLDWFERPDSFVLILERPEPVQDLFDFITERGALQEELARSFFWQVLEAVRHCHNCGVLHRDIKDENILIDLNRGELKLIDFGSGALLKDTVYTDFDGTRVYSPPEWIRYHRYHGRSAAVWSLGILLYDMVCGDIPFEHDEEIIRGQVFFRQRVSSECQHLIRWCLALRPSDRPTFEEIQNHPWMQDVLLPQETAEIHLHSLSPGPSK
T26 sequence (Q02763 23-1124): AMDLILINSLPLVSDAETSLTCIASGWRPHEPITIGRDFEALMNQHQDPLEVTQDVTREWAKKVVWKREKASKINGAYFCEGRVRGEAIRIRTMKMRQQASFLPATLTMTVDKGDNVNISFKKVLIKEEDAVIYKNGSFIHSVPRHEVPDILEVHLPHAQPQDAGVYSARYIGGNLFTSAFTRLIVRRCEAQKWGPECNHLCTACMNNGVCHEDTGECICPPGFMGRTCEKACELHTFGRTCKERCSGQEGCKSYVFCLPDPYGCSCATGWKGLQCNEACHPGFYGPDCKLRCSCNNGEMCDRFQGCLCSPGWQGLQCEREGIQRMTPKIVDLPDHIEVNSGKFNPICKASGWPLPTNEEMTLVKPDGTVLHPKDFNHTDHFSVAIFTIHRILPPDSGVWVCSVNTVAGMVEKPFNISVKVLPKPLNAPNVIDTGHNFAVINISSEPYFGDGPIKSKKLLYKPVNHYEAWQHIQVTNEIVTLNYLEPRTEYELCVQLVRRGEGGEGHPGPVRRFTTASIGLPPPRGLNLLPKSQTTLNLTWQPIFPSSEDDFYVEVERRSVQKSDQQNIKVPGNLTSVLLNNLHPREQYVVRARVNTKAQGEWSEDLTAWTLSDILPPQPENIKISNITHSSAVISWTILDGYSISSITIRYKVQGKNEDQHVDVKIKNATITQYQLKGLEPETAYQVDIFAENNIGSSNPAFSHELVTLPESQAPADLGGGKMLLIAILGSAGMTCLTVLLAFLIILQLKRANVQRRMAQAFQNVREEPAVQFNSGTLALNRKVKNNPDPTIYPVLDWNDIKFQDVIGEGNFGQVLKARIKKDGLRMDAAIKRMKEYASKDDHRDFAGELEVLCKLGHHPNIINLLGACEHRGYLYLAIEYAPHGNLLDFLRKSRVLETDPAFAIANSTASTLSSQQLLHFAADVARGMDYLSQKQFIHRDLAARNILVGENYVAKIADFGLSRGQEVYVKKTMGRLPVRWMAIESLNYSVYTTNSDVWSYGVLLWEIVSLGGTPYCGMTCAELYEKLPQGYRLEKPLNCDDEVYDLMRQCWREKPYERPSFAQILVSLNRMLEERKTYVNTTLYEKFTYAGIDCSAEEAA
T19 sequence (Q06418 41-890): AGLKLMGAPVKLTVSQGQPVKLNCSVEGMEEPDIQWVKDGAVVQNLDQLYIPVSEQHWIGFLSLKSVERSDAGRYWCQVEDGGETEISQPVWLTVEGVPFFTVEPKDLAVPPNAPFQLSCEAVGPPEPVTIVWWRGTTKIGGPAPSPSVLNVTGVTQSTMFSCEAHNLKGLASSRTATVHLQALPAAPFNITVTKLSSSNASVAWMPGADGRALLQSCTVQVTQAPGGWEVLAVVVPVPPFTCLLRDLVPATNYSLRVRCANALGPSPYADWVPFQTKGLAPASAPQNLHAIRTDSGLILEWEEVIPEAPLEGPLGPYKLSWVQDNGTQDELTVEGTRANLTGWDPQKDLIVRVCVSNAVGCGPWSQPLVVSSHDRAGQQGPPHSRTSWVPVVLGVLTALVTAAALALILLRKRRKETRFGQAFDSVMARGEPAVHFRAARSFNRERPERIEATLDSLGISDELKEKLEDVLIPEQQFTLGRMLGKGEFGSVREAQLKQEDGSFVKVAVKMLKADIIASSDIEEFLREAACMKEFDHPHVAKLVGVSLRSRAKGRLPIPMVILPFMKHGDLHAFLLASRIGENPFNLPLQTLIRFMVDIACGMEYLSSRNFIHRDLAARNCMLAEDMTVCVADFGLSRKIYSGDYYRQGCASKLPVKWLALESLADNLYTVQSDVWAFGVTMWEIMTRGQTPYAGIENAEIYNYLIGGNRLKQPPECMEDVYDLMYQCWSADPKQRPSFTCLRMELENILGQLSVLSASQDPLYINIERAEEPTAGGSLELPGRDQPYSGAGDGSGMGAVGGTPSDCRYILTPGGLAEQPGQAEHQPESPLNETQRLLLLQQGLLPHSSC
T3 sequence (Q99683 whole entry): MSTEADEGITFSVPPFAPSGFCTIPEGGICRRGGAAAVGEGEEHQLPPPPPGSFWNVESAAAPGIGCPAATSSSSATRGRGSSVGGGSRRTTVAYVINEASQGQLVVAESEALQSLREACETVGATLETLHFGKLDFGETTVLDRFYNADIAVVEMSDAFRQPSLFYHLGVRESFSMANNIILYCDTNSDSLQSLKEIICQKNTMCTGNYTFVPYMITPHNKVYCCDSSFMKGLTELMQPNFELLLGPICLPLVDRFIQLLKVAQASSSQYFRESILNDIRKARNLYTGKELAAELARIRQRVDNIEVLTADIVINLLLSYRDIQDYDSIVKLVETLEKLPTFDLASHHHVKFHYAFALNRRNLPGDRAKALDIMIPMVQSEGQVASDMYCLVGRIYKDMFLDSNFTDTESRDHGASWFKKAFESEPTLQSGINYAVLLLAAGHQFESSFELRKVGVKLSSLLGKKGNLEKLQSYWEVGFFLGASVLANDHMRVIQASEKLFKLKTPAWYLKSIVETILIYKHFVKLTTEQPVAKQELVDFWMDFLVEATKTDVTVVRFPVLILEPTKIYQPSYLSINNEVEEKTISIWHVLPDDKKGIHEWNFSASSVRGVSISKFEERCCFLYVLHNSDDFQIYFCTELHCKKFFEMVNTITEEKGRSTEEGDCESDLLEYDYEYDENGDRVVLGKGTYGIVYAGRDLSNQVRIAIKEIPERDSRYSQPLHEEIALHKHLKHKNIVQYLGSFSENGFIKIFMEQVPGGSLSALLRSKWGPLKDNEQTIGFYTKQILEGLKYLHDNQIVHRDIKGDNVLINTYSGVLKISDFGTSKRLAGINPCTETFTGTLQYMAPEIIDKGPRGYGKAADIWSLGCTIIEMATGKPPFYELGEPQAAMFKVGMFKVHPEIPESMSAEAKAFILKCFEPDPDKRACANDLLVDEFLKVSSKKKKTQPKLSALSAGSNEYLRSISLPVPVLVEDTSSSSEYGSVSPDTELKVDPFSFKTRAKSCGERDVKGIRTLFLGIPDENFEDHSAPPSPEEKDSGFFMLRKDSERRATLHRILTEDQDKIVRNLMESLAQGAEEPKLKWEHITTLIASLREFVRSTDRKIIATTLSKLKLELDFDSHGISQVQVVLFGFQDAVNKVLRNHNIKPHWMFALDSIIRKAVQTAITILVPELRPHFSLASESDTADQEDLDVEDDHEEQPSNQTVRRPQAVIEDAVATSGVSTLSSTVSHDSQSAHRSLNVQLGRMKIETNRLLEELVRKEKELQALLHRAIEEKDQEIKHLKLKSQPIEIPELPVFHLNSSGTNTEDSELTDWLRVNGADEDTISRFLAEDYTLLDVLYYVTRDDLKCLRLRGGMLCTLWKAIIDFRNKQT

Brc1ccc2[nH]cc(-c3nc4c5ccccc5c5ccccc5c4[nH]3)c2c1 [Compound 45] showed a viability at 25 µM [1] of 96%, a viability at 100 µM [1] of 32.7% and an activity at 10 µM (Abl) of 107%. The activity at 10 µM (ALK) was 60%, the “% activity” value (AMPK) was 100% and the activity at 10 µM (ASK1) was 99%. For the same molecule, the activity at 10 µM (CDK1/cyclinB) was 156%, the activity at 10 µM (CDK2/cyclinA) was 95% and the activity at 10 µM (EGFR) was 105%. For the same molecule, the activity at 10 µM (ErbB4) was 73%, the activity at 10 µM (FGFR3) was 82% and the activity at 10 µM (Fms) was 135%. For the same molecule, the activity at 10 µM (IKKα) was 150%, the activity at 10 µM (JNK1α1) was 85% and the activity at 10 µM (MST2) was 77%. For the same molecule, the activity at 10 µM (NEK2) was 90%, the activity at 10 µM (PI3K-α) was 30% and the activity at 10 µM (Pim-1) was 70%. It also gave an activity at 10 µM (PKD2) of 52%, an activity at 10 µM (Plk3) of 132% and an activity at 10 µM (RAF) of 100%. For the same molecule, the activity at 10 µM (Rse) was 176%, the activity at 10 µM (Rsk1) was 183% and the activity at 10 µM (SAPK2a) was 62%. The activity at 10 µM (SAPK2b) was 80%, the activity at 10 µM (SAPK3) was 54% and the activity at 10 µM (SGK) was 89%. It also gave an activity at 10 µM (TAK1) of 104% and an activity at 10 µM (Tie2) of 109%.
